{"source": "patent US6428972B2", "about": "“Biochemical method to measure niacin status in a biological sample” (Niadyne, Inc., priority 1998, dated 2002)", "tested_on": "NAD and NADP in whole blood", "conditions": "hypercholesterolemia subjects, 750 mg of niacin twice daily for two months", "note": "Where “and” joins values, the source holds several entries; their conditions need not be identical. Equal values may be shown once.", "source_text": "The term niacin number has been chosen as a convenient way to represent niacin status and is defined as the ratio of the concentration of NAD to the concentration of NADP multiplied by 100 (100·[NAD]/[NADP]) in whole blood. For example, if the relative concentration of NADP([NADP]) is 1 and the relative concentration of NAD([NAD]) is 0.72, the niacin number would be 72 (from the formula 100·[NAD]/[NADP]=72 wherein [NAD] is 0.72 and [NADP] is 1). Expressing the values in this way yields a whole number that is linearly related to intracellular NAD content of red blood cells.", "data": [{"smiles": "O=C(O)c1cccnc1", "note": "[niacin, pyridine 3-carboxylic acid]", "values": [{"measurement": "Mean niacin number", "setting": "pretherapy mean 175", "result": "665 and 665 ± 115"}, {"measurement": "Range observed (niacin number)", "setting": "pretherapy range 131-242", "result": "517-746"}]}]}
